In patent US20100080790A1, “STERILIZATION USING HIGH-PRESSURE CARBON DIOXIDE” (University of South Carolina, priority 2005, published 2010):
“And” between values parts separate entries of the source, which are not always exact repeats. Identical values can stand only once. “Also recorded” adds a separate entry of the source. Like-named read-outs stand apart in the source and are kept apart here.

Key:
[1] = system: B. pumilus ATCC 27142 spores; assay: Log reduction of B. pumilus spores on spore strips treated with high-pressure/supercritical CO2 with or without additives, colony counting; type: cell-based
[2] = system: B. atrophaeus ATCC 9372 spores
[3] = system: B. anthracis ΔSterne-1 spores
Lactobacillus plantarum = conditions: high-pressure CO2 treatment, suspension in distilled water at pH 6.0; cited from earlier work
[4] = system: Vegetative G. stearothermophilus cells; conditions: 1.5-hour exposure, 28 bar, 25 °C; cited from earlier work
[5] = system: G. stearothermophilus spores; conditions: cited from earlier work
[6] = additive with CO2, conditions of Table 2
[7] = additive with CO2, 40 °C, 276 bar, 4 hr

OO [30% H2O2, hydrogen peroxide]
LOG REDUCTION [1]: 4.47 ± 0.64 log and 4.60 ± 0.02 log and 6.28 ± 0.46 log and 4.45 ± 0.31 log | deactivation in replicate experiments (in words) [1]: complete deactivation in two of the three replicate experiments | effectiveness of additive in deactivating B. pumilus spores (in words) [1]: highly effective; also recorded: the most effective additive among the additives examined | Log reduction [2]: 6.25 | Log reduction [3]: 5.74

CCO [70% ETHANOL, ethanol]
effectiveness of additive in deactivating B. pumilus spores (in words) [1, 6]: Neither bulk water, 5 μL of 70% ethanol, nor 5 μL of 70% isopropanol resulted in the required log reduction | LOG REDUCTION [1, 7]: 0.27 ± 0.16 log | effectiveness of additive (in words) ([1]; dense-phase CO2, at 40 °C): neither bulk water, nor ethanol, nor isopropanol were effective additives

CC(C)O [70% ISOPROPANOL, isopropanol]
effectiveness of additive in deactivating B. pumilus spores (in words) [1, 6]: Neither bulk water, 5 μL of 70% ethanol, nor 5 μL of 70% isopropanol resulted in the required log reduction | LOG REDUCTION [1, 7]: 0.17 ± 0.06 log | effectiveness of additive (in words) ([1]; dense-phase CO2, at 40 °C): neither bulk water, nor ethanol, nor isopropanol were effective additives

O [BULK WATER, water]
effectiveness of additive (in words) [1]: neither bulk water, nor ethanol, nor isopropanol were effective additives | effectiveness of additive in deactivating B. pumilus spores (in words) [1]: Neither bulk water, 5 μL of 70% ethanol, nor 5 μL of 70% isopropanol resulted in the required log reduction

O=C=O [CO2, carbon dioxide]
log reduction (Lactobacillus plantarum): more than 7 log | log reduction [1]: 3.90 log | LOG REDUCTION ([1]; wetted spore strips with CO2, 4 hr, 103 bar, 60 °C): 1.91 ± 0.23 log | LOG REDUCTION ([1]; wetted spore strips with CO2, 4 hr, 276 bar, 50 °C): 0.58 ± 0.04 log | LOG REDUCTION ([1]; wetted spore strips with CO2, 4 hr, 276 bar, 60 °C): 3.06 ± 0.17 log | LOG REDUCTION ([1]; wetted spore strips with CO2, 4 hr, 276 bar, 80 °C): 3.02 ± 0.07 log | log reduction of vegetative cells [4]: more than 6 log | spores remained viable [5]: 80%
